Assay [1] has as its system gut microbiome. Put plainly: Phase 1 healthy volunteer study, gut microbiome (metagenomics, qPCR). The format is in vivo, human. Particulars: phase 1 healthy volunteer study; treatment over 10 days; shotgun metagenomic sequencing. On the technique in general: In qPCR the cycle at which signal appears reflects the starting amount.
The test system of assay [2] is gut microbiome. Put plainly: Germ-free humanized mouse study, 16S rRNA gut microbiome analysis. The format is in vivo. Conditions: humanized germ-free mice. An excerpt:
Germ-free (GF) mice (six per group) were randomly assigned to IBZ, VAN, FDX, MTZ, or control groups.
An oral gavage of healthy human-derived fecal slurry was given to GF mice. The humanized mice were housed in a sterile biological safety cabinet (BSC) for one week to allow the donor gut microbiome to establish. Humanized mice were then moved to sterile, micro-isolator cages and pellet chow diet was exchanged for a powder chow diet. The humanized mice were then allowed one week to acclimate to the powder chow diet. In addition, a stool sample was obtained prior to the change in diet (baseline 1). At day 14, once the mice acclimated to the powder chow diet, a second baseline stool sample was obtained (baseline 2) and antibiotic treatment was started. The appropriate antibiotics were added to the powder chow diet for 10 days. At day 16, two days after beginning antibiotic treatment, another stool sample was collected (ABX-1). During the 10-day antibiotic treatment, powder chow dishes were refilled each day with fresh chow containing the randomly assigned antibiotic. Stool samples were again collected at day 24 (ABX-2).
To assess antibiotic microbiome effect, 16S rRNA metagenomics was used on stool samples that were collected at day 0 (baseline 1 and baseline 2) and after 2 and […] of treatment with antibiotics. Bulk DNA was extracted from stool samples using the DNeasy® PowerSoil® Kit. The V4 region of the bacterial 16S rRNA gene was sequenced using the Illumina MiSeq and CLC Genomics Workbench. Raw sequencing reads were processed and curated using the mothur (v.1.48.0) software package and the mothur MiSeq SOP was followed as outlined in Schloss, P. D., et al., Introducing mothur: open-source, platform-independent, community supported software for describing and comparing microbial communities. Appl Environ Microbiol, 2009. 75(23): p. 7537-41 (see also, Kozich, J. J., et al., Development of a dual-index sequencing strategy and curation pipeline for analyzing amplicon sequence data on the MiSeq Illumina sequencing platform. Appl Environ Microbiol, 2013. 79(17): p. 5112-20.). All data visualization and statistical analysis were performed using R studio (R Core Team (2023). R: A Language and Environment for Statistical Computing, Vienna, Austria.).

For assay [3], the system named is C. difficile biofilms (strains R20291, CD 630). Nature of the assay: C. difficile in vitro biofilm studies (MIC, MBIC, CFU/mL, Crystal Violet biomass). In kind it is cell-based. Particulars: for MBIC: Minimum Biofilm Inhibitory Concentration; for MIC: Clostridioides difficile. The method, then:
A basic flow chart outlining the experimental procedure used in these studies may be seen in FIG. 14. Briefly, C. difficile laboratory strain R20291 was grown in Brain heart infusion-supplemented (BHIS) medium. […] Biofilm formation was established via anaerobic incubation of the cultures at 37° C. for 24 hrs. Early biofilm formation was established at 4 hrs, whereas late biofilm formation was established at 24 hrs, 48 hrs, and 72 hrs. Following biofilm formation, the BHIS medium was removed and replaced with fresh media comprising no antibiotic (control), ibezapolstat (IBZ), Fidaxomicin (FDX), or metronidazole (MTZ). The cultures were then anaerobically incubated for 24 hrs or subjected to time course tests. Biofilm biomass was measured using Crystal Violet staining. […] Data was measured and recorded using Cytation 3 calibrated to read at A570. Data was analyzed by comparing percent growth of antibiotic treated cultures with controls.

Assay [4] has as its system bacterial infections in the gut. Conditions: treatment of bacterial infections in the gut; cited from earlier work.
The subject of assay [5] is C. difficile clinical isolates. Particulars: for MIC: Clostridioides difficile, 24 h, agar dilution; for MIC range: across the twelve clinical isolates tested.
The mark [6] stands for this setting: antibiotic in powder chow 10 days.
[7] abbreviates: antibiotic in powder chow 10 days, compared to Baseline 2 (D14).
Where [8] appears, read: C. difficile clinical isolate MT 4802.
[9] abbreviates: C. difficile clinical isolate MT 5071.
[10] abbreviates: C. difficile clinical isolate MT 5342.
Where [11] appears, read: C. difficile clinical isolate MT 5364.
Setting [12] is: C. difficile clinical isolate MT 5382.
The mark [13] stands for this setting: C. difficile clinical isolate MT 5426.
[14] abbreviates: C. difficile clinical isolate MT 5493.
The mark [15] stands for this setting: C. difficile clinical isolate MT 5515.
The mark [16] stands for this setting: C. difficile clinical isolate MT 5529.
Where [17] appears, read: C. difficile clinical isolate MT 5536.
Where [18] appears, read: C. difficile clinical isolate SH 1132.
Where [19] appears, read: C. diff. strain R20291, read-out: MIC.

Values after ≈ are worked out from the molar mass of the structure shown. Where two headings read alike, the source gives them in different places.

As for `CN[C@H](CC(C)C)C(=O)N[C@H]1C(=O)N[C@@H](CC(N)=O)C(=O)N[C@H]2C(=O)N[C@H]3C(=O)N[C@H](C(=O)N[C@H](C(=O)O)c4cc(O)cc(O)c4-c4cc3ccc4O)[C@H](O)c3ccc(c(Cl)c3)Oc3cc2cc(c3O[C@@H]2O[C@H](CO)[C@@H](O)[C@H](O)[C@H]2O[C@H]2C[C@](C)(N)[C@H](O)[C@H](C)O2)Oc2ccc(cc2Cl)[C@H]1O` [Vancomycin, vancomycin], the “microbiome profile of treated subjects” value in assay [1] was “larger proportion of Proteobacteria”. Besides, the “relative abundance of Proteobacteria (in words)” value was “proportional increases” in assay [2] (phylum level) and “increased” in assay [2] (phylum level, listed as VAN). Moreover, the “relative abundance of Verrucomicrobiota (in words)” value in assay [2] (phylum level) is “increased”. In addition, the “Average Change in Metric ± SD, Bray-Curtis Dissim. to Baseline 1” value in assay [2] (setting [6]) amounted to 0.84 ± 0.02. Also, the “Average Change in Metric ± SD, Bray-Curtis Dissim. to Baseline 2” value in assay [2] (setting [6]) is listed as 0.75 ± 0.03. Besides, in assay [2] (setting [7]), the “Avg. Change in Relative Abundance ± SD, Proteobacteria” value is 37.2% ± 2.8%. Also, the “C. diff growth (CFU/mL) and biomass at sub-MIC compared to control” value in assay [3] (0.4× MIC) is listed as “reduced”. The “growth in early biofilms at supra-MIC” value in assay [3] (40× MIC, after 48 hours of treatment) is listed as “reduced growth”. The same compound came in with an MBIC in assay [3] (C. diff. strain R20291) of 1 µg/mL. Moreover, the MIC was determined as 1 µg/mL (≈ 0.69 µM) in assay [3]; 1 µg/mL (≈ 0.69 µM) in assay [5] (setting [8]); 8 µg/mL (≈ 5.52 µM) in assay [5] (C. difficile clinical isolate MT 4883); 4 µg/mL (≈ 2.76 µM) in assay [5] (setting [9]); 8 µg/mL (≈ 5.52 µM) in assay [5] (setting [10]); 4 µg/mL (≈ 2.76 µM) in assay [5] (setting [11]). The MIC in assay [5] (setting [12]) came out at 1 µg/mL (≈ 0.69 µM); in assay [5] (setting [13]), 4 µg/mL (≈ 2.76 µM); in assay [5] (setting [14]) it was 1 µg/mL (≈ 0.69 µM); in assay [5] (setting [15]), 4 µg/mL (≈ 2.76 µM); in assay [5] (setting [16]), 1 µg/mL (≈ 0.69 µM); in assay [5] (setting [17]), 2 µg/mL (≈ 1.38 µM). The same compound yielded an MIC in assay [5] (setting [18]) of 4 µg/mL (≈ 2.76 µM). The “patients having a recurring infection after treatment is discontinued” value in assay [4] was 20-25%. Also, the MIC range in assay [5] fell in the range of 1 to 16 µg/mL.
`CCc1c(Cl)c(O)c(Cl)c(O)c1C(=O)O[C@H]1[C@H](O)[C@H](OC)[C@H](OC/C2=C\C=C\C[C@H](O)/C(C)=C/[C@H](CC)[C@@H](O[C@@H]3OC(C)(C)[C@@H](OC(=O)C(C)C)[C@H](O)[C@@H]3O)/C(C)=C/C(C)=C/C[C@@H]([C@@H](C)O)OC2=O)O[C@@H]1C` [Fidaxomicin, fidaxomicin]: the “change of Firmicutes (in words)” value in assay [2] (phylum level) is “increased”. In assay [2] (phylum level), the “proportional change of Bacteroidetes (in words)” value is recorded as “proportional increases”. In addition, the “Average Change in Metric ± SD, Bray-Curtis Dissim. to Baseline 1” value in assay [2] (setting [6]) is 0.62 ± 0.02. The “Average Change in Metric ± SD, Bray-Curtis Dissim. to Baseline 2” value in assay [2] (setting [6]) is recorded as 0.39 ± 0.03. Further, the “Avg. Change in Relative Abundance ± SD, Bacteroidetes” value in assay [2] (setting [7]) is 9.9% ± 2.9%. For the same compound, the “Avg. Change in Relative Abundance ± SD, Proteobacteria” value in assay [2] (setting [7]) was 10.2% ± 3%. Moreover, the “Avg. Change in Relative Abundance ± SD, Verrucomicrobia (Akkermansia)” value in assay [2] (setting [7]) is 3.6% ± 2.8%. The compound also displayed an MBIC in assay [3] (C. diff. strain R20291) of 0.125 µg/mL. Besides, the MIC in assay [3] (setting [19]) stood at 0.06 µg/mL (≈ 0.0567 µM); in assay [5] (setting [8]), 0.006 µg/mL (≈ 0.00567 µM); in assay [5] (setting [9]), 1 µg/mL (≈ 0.945 µM); in assay [5] (setting [10]), 1 µg/mL (≈ 0.945 µM); in assay [5] (setting [11]) it was 1 µg/mL (≈ 0.945 µM); in assay [5] (setting [12]), 1 µg/mL (≈ 0.945 µM). For the same compound, the MIC in assay [5] (setting [13]) is 0.5 µg/mL (≈ 0.473 µM); in assay [5] (setting [14]), 1 µg/mL (≈ 0.945 µM); in assay [5] (setting [15]), 2 µg/mL (≈ 1.89 µM); in assay [5] (setting [16]), 0.5 µg/mL (≈ 0.473 µM); in assay [5] (setting [17]), 1 µg/mL (≈ 0.945 µM); in assay [5] (setting [18]), 0.5 µg/mL (≈ 0.473 µM). Also, in assay [5], the MIC range is <0.03125 to 2 µg/mL.
Consider `Cc1ncc([N+](=O)[O-])n1CCO` [Metronidazole, metronidazole], for which the “relative abundance of Proteobacteria (in words)” value in assay [2] (phylum level) was “proportional increases”; in assay [2] (phylum level, listed as MTZ), “increased”. Also, the “relative abundance of Verrucomicrobiota (in words)” value in assay [2] (phylum level) is “increased”. Further, the “Average Change in Metric ± SD, Bray-Curtis Dissim. to Baseline 1” value in assay [2] (setting [6]) amounted to 0.92 ± 0.02. Besides, the “Average Change in Metric ± SD, Bray-Curtis Dissim. to Baseline 2” value in assay [2] (setting [6]) worked out at 0.92 ± 0.04. The “Avg. Change in Relative Abundance ± SD, Firmicutes” value in assay [2] (setting [7]) is listed as 36.5% ± 5.1%. Also, in assay [2] (setting [7]), the “Avg. Change in Relative Abundance ± SD, Proteobacteria” value is reported as 15.1% ± 3.8%. The same compound came in with an MBIC in assay [3] (C. diff. strain R20291) of 0.5 µg/mL. Besides, the MIC stood at 0.5 µg/mL (≈ 2.92 µM) in assay [3] (setting [19]); 0.25 µg/mL (≈ 1.46 µM) in assay [5] (setting [8]); 1 µg/mL (≈ 5.84 µM) in assay [5] (setting [9]); 2 µg/mL (≈ 11.7 µM) in assay [5] (setting [10]); 2 µg/mL (≈ 11.7 µM) in assay [5] (setting [11]); 2 µg/mL (≈ 11.7 µM) in assay [5] (setting [12]). For the same compound, the MIC in assay [5] (setting [13]) is 4 µg/mL (≈ 23.4 µM); in assay [5] (setting [14]) it was 2 µg/mL (≈ 11.7 µM); in assay [5] (setting [15]), 4 µg/mL (≈ 23.4 µM); in assay [5] (setting [16]), 2 µg/mL (≈ 11.7 µM); in assay [5] (setting [17]), 0.25 µg/mL (≈ 1.46 µM); in assay [5] (setting [18]), 1 µg/mL (≈ 5.84 µM). Also, in assay [3] (R20291 or CD 630, at higher concentrations), the “Eagle effect in 24-hour biofilms” value is “Eagle effect was observed”. Moreover, the MIC range in assay [5] was 0.25 to 8 µg/mL.
